Here are results for 89 compounds from a melting point compilation (Tetko et al.; mined from patent text by program, amines drawn as free bases though some values may be those of a salt).

As usually defined, the melting point is the temperature of the solid-liquid transition. The compound `CC(C)(O)CCOc1c(-c2ccc(S(C)(=O)=O)cc2)cnn(-c2ccc(F)cc2)c1=O` came in with a melting point of 133 to 134 °C. With `O=C(O)CC/C=C/CC(NC(=O)c1ccccc1)C(=O)O` (centres undefined), the melting point came to 138 °C. For `O=Cc1cc(Oc2c(Cl)cc(-n3ncc(=O)[nH]c3=O)cc2Cl)ccc1O` the value was 146 to 150 °C.

Regarding `CC(=O)SCCCn1cc(C2=C(c3cn(C)c4ccccc34)C(=O)NC2=O)c2ccccc21`, the melting point fell in the range of 210 to 213 °C. For the compound `CCn1cc(C(=O)O)c(=O)c2cc(F)c(N3CC4CCC3CN4)nc21` (centres undefined), the melting point lay in the range of 250 to 253 °C. As for `CC(C)n1nc(CC(=O)c2ccc(F)cc2)ccc1=O`, the melting point was 67 to 68 °C.

On to `CNc1nc2ccc(C3=NNC(=O)NC3C)cc2s1` (centres undefined), for which the melting point lay in the range of 290 to 295 °C.

With `O=C(Nc1ccc2[nH]ccc2c1)c1cc2cc(F)ccc2n1Cc1cccc(F)c1`, the melting point was in the range of 158 to 163 °C. For `COc1ccc(-c2cncc(OC3SCC(O)C(O)C3O)c2)c(C)c1` (centres undefined) the value was 231 °C; for `CCOC(=O)Nc1ccc(Cl)nc1`, 110 °C; for `COc1ccc2[nH]c(S(=O)Cc3ncc(C)c(N4CCCC4)c3Cl)nc2c1` (centres undefined), 145 to 146 °C. For the compound `CCCCc1nc2c(N)nc3ccccc3c2n1CCCCCCCCNC(=O)c1ccccc1`, the melting point was in the range of 150 to 151 °C. `CC(=O)N1CCCC(=O)c2ccc(Cl)cc2C(c2ccccc2)CC1=O` (centres undefined): the melting point is 184 to 185 °C. `Clc1cc(Cl)n2nc(SCc3ccccc3)nc2c1` came in with a melting point of 88 to 89 °C. In turn, `O=C(O)CSc1nc(-c2ccccc2)c(-c2ccccc2)o1` yielded a melting point of 66 to 68 °C.

As to `CCCOc1cc(-n2c(=O)cc(C(F)(F)F)n(C)c2=O)c(F)cc1Cl`, the melting point lay in the range of 103 to 104 °C. Compound `NC1=NN(c2cccc(Cl)n2)C(c2ccc(Cl)cc2)C1` (centres undefined) returned a melting point of 157 to 158 °C. For `O=C(O)c1cccc(C23CC4CC(CC(C4)C2)C3)c1` the value was 247 to 249 °C; for `CCCOc1ccc(-c2scc(-c3ccccc3Cl)c2CC(=O)NC(=N)n2cccn2)cc1`, 119 to 120 °C; for `COc1ccc(N(CC(=O)OC(C)(C)C)C(=O)CNC(=O)Nc2cccc(C)c2)cc1`, 158 °C. With `CC1Oc2ccc(CN3CCN(CC(=O)NC4CC4)CC3)cc2NC1=O` (centres undefined), the melting point lay within 180 to 181 °C. As for `C#CCC(O)(Cn1cncn1)c1ccc(Oc2ccc(Cl)cc2)cc1Cl` (centres undefined), the figure is 124 °C; as for `CCC(CC)O[C@@H]1C=C(C(=O)O)C[C@H](CC2CO2)[C@H]1NC(C)=O` (some centres undefined), 115 to 116 °C; as for `COc1cccc(-c2cn3c(n2)CCc2ccccc2-3)c1`, 107 to 109 °C. For `CC(=O)Nc1cc(Br)sc1Br` the value was 114 to 116 °C; for `O=C1Nc2cc(Cl)ccc2N[C@H]1Cc1ccccc1`, 185 °C; for `Cc1cccc(Nc2ncnc3cnc(NC4CCN(C#N)CC4)nc23)c1`, 178 to 181 °C. Turning to `COc1cc2c(CSCCN3CC=C(c4ccccc4)CC3)c[nH]c2cc1C(=O)O`, the melting point was in the range of 168 to 171 °C. Compound `Cc1cccc(C(=O)NC(C)C)c1NC(=O)c1cc(C(F)(F)F)nn1-c1ncccc1C(F)(F)F` registered a melting point of 227 to 230 °C. `CCOC1=CC(=O)CC(c2ccccc2O)C1` (centres undefined): the melting point is 194 to 197 °C.

With `COc1ccc2c(c1)N1CCOCC1CN=C2c1ccco1` (centres undefined), the melting point was 130 to 132 °C. For `COc1cc2ncc(C#N)c(Nc3ccc4[nH]c(C)nc4c3)c2cc1OC` the value was 207 °C.

In turn, `COc1c(C)c(N2CCN(c3ccc(F)cc3)CC2)c(C)c2c1OC(C)(C)C2` returned a melting point of 137 to 139 °C. `O=C(Nc1cnc2c(c1)OCCN2)c1cc2cc(F)ccc2n1Cc1cccc(F)c1` returned a melting point of 265 to 266 °C.

`O=c1c(-c2ccc(F)cc2)coc2c(O)c(O)ccc12` returned a melting point of 289 °C. In turn, `CCCCn1c(=O)c2c(NC)n[nH]c2n(Cc2ccc(OC)cc2)c1=O` gave a melting point of 292 to 294 °C. Compound `O=C(O)c1cc(Cl)c(Oc2ccc(O)cc2)c(Cl)c1` gave a melting point of 163 to 165 °C. As for `O=P(CN=Cc1ccccc1Cl)(c1ccccc1)c1ccccc1`, the figure is 89 °C; as for `Cc1c(N2C[C@@H]3CCCN[C@@H]3C2)c(F)cc2c(=O)c(C(=O)O)cn([C@@H]3C[C@@H]3F)c12`, 244 to 245 °C; as for `CC1OC(n2cc(F)c(N)nc2=O)C(O)C1OC(=O)c1ccccc1` (centres undefined), 127 to 129 °C. For `COc1cccc(NC(=O)COC(C)=O)c1C#N` the value was 131 to 132 °C. For `CC1CCN(c2ccc(-c3nc(C(=O)Nc4nccs4)c(-c4ccc(Cl)cc4)[nH]3)cc2)CC1` the value was greater than 250 °C; for `CCOC(=O)CNC(=O)c1n[nH]cc1NC(=O)c1cccc(C)n1`, 228 to 229 °C. The compound `CCCc1c(OCCCCCCc2cccc(O)c2O)ccc(C(=O)O)c1O` had a melting point of 147 to 150 °C. The compound `NC(=O)Cn1c(=O)ccc2cc(Br)ccc21` registered a melting point of 257 to 258 °C. Consider `Cc1cc(SC2=C(O)CC(CCc3cccnc3)(C(C)C)OC2=O)c(C(C)(C)C)cc1CO` (centres undefined), for which the melting point lay within 122 to 125 °C. `Nc1nnc2ccc(-c3ccco3)nn12` registered a melting point of 203 to 206 °C. Consider `Cn1nc(-c2c(F)cccc2Cl)nc1-c1ccc(Cc2ccc(Cl)c(Cl)c2)c(Cl)c1`, for which the melting point was in the range of 179 to 185 °C. For `C=CCNc1nc(NCC=C)c2scc(C)c2n1` the value was 77 to 80 °C; for `C=CCOc1ccc(C(=O)C=Cc2ccc(OC)cc2OC)cc1`, 74.5 to 75 °C. `CC(=O)c1cccc2c1CCc1ccccc1C2=O`: the melting point is 65 to 68 °C. For `Cc1nnc2ccc(-c3cccc(N(C)C(=O)N(C)C)c3)nn12` the value was 159 to 161 °C; for `C#CCOC(=O)c1cc(Cl)c(OCC#C)c(OCC#C)c1`, 98 to 99 °C; for `CCc1nc2c(cnn2CC)c(NC2CCOCC2)c1CNC(=O)c1cccc(C(=O)NCc2ccc(OC)c(-c3cccc(C=O)c3)c2)c1`, 118 to 121 °C.

In the case of `CC(C)Oc1cncc(Br)c1`, the melting point fell in the range of 144 to 146 °C. In turn, `CC(=O)NC[C@H]1CN(c2ccc(C3(F)CCNCC3)c(F)c2)C(=O)O1` had a melting point of 163 to 165 °C. `O=c1c2ccccc2cc2n1CCCCC2`: the melting point lay in the range of 99 to 101 °C. For `Cc1cc(F)ccc1C1(c2ccc(S(C)(=O)=O)cc2C)CSC=C1c1ccc(S(C)(=O)=O)cc1` (centres undefined) the value was 158 to 160 °C; for `Clc1ncc(-c2ccccc2)o1`, 34 °C; for `Cc1ccc(S(=O)(=O)OCC2CCc3cc(Br)ccc3C2)cc1` (centres undefined), 87 to 89 °C.

Consider `O=c1[nH]c2ccc(-c3cc(CN4CCC(Cc5ccc(F)cc5)CC4)on3)cc2o1`, for which the melting point lay in the range of 237 to 244 °C. For `N#Cc1ccc(N(Cc2ccc(OCc3ccccc3)cc2)n2cnnc2)cc1-c1ccc(C(F)(F)F)cc1` the value was 173 to 175 °C; for `Oc1ccc(OCc2ccccc2)c(F)c1`, 80 to 82 °C; for `O=c1[nH]c2ccccc2n1CCCN1CCC(O)(c2ccc(F)cc2)CC1`, 135 °C.

The compound `CCOC(=O)C1(C(=O)OCC)CCC2(c3cc(OC)c(OC)cc3CCN2C(=O)CCN(C)C)C(C2c3cc(OC)c(OC)cc3CCN2C(C)=O)C1` (centres undefined) yielded a melting point of 154 to 156 °C. For `O=C(OCc1ccc(OCc2ccc(Cl)cc2)cc1)c1cccnc1` the value was 101 to 102 °C; for `COc1ccc(Cn2c(=O)ccc3cnc(N4CCC[C@H]4CO)nc32)cc1Cl`, 142 to 143 °C. For `N#Cc1c(N2CCN(C(=O)c3cccs3)CC2)c2cc(Cl)cnc2[nH]c1=O` the value was 158 °C; for `N#CC(CCC(=O)O)(CC(=O)O)c1ccc(Cl)c(Cl)c1` (centres undefined), 152 °C. For the compound `N#Cc1ccc(OCC(O)CN2CC3CC(C2)CN(C(=O)OCc2ccc([N+](=O)[O-])cc2)C3)cc1` (centres undefined), the melting point fell in the range of 165 to 166 °C. In turn, `CC(=O)NCC1CN(c2ccc(N3CCN(C(=O)COC(=O)CCN(C)C)CC3)c(F)c2)C(=O)O1` (centres undefined) showed a melting point of 136 to 137 °C. In turn, `CCCC(C)COc1cc(CCl)c(OC)cc1CCl` (centres undefined) came in with a melting point of 78 to 80 °C.

`O=C(O)c1ccc(S(=O)(=O)C(Br)(Br)Br)cc1` gave a melting point greater than 305 °C. As for `O=C(NCCCCCCCCc1ccccc1)c1cc(-c2cccc(C(F)(F)F)c2)c(OCCO)c(-c2cccc(C(F)(F)F)c2)c1`, the figure is 143 to 145 °C. For `CC(C(=O)OCCO)n1c(-c2ccc(Cl)cc2)nc2cccnc21` (centres undefined) the value was 112 to 114 °C; for `OCc1cc2c(cn1)[nH]c1ccccc12`, 228 to 230 °C.

In turn, `CN1C(=O)CC[C@]2(C)c3ccc(-c4ccccc4[N+](=O)[O-])cc3CC[C@@H]12` had a melting point of 130 to 131 °C. Turning to `CSc1cnc2ccccc2c1`, the melting point came out at 40 °C. For `O=CNc1cc(-c2ccc(Cl)cc2)n[nH]1` the value was 151 °C; for `COC(=O)c1cc2c3cccc(Cl)c3n(C)c2s1`, 166 to 168 °C. As for `COC(=O)c1cc(O)c2cc[nH]c2c1`, the figure is 160 to 162 °C. `COCc1c(C(=O)NN)ncc2[nH]c3cccc(OCc4ccccc4)c3c12` showed a melting point of 212 to 213 °C.

With `Cc1nn(C)c(C)c1S(=O)(=O)N1CCC2(CC1)CSC1=C(O2)c2ccccc2C(=O)C1=O`, the melting point is 273 to 275 °C. `CC(C)(C)c1cc(CCc2ccccc2NC(=O)NCCc2ccc([N+](=O)[O-])cc2)cc(C(C)(C)C)c1O`: the melting point is 134 to 136 °C. In turn, `Cc1cc(C(C)(C)CCl)c(Cl)nn1` returned a melting point of 41 to 42 °C. Turning to `CC1(C)NC(=O)N(c2ccc([N+](=O)[O-])c(Cl)c2)C1=O`, the melting point was in the range of 144 to 145 °C. For `C[Si](Cn1ncnc1I)(c1ccc(F)cc1)c1ccc(F)cc1` the value was 102 to 104 °C; for `CN(C)c1cc(Br)cc(Sc2ccc([N+](=O)[O-])cc2)c1`, 102 to 104 °C. In turn, `O=C(NCCCCCn1cnc2cnc3ccccc3c21)c1ccccc1` registered a melting point of 172 °C.
